Laboratory results reported in patent US20240390429A1, “METHOD AND FORMULATION FOR TREATING RESPIRATORY DISEASES” (ENTEROBIOME INC., priority 2019, published 2024).
≈ marks a conversion by molar mass, not a printed value.

What was measured:
Type in all cases: cell-based
[1] = tested on: Akkermansia muciniphila EB-AMDK19; test: MIC by broth microdilution (CLSI), isolated strain; settings: for MIC: Akkermansia muciniphila, EBAMDK19, test strain EB-AMDK19, broth microdilution; for Susceptibility category by MIC breakpoints: test strain EB-AMDK19, breakpoints per antibiotic in c1-c3
[2] = tested on: Akkermansia muciniphila ATCC BAA-835; test: MIC by broth microdilution (CLSI), type strain; settings: for MIC: Akkermansia muciniphila, ATCCBAA835, test strain ATCC BAA-835, broth microdilution; for Susceptibility category by MIC breakpoints: test strain ATCC BAA-835, breakpoints per antibiotic in c1-c3
[3] = tested on: Bacteroides thetiotaomicron ATCC 29741; test: MIC by broth microdilution (CLSI), QC strain

Compound | MIC [1] [µg/mL] | Susceptibility category by MIC breakpoints [1] | MIC [2] [µg/mL] | Susceptibility category by MIC breakpoints [2] | MIC ([3]; Bacteroides, ATCC29741) [µg/mL] | MIC ([3]; QC strain ATCC 29741, broth microdilution)
COc1c(N2C[C@@H]3CCCN[C@@H]3C2)c(F)cc2c(=O)c(C(=O)O)cn(C3CC3)c12 [MXF, moxifloxacin] | > 32 | (R) | > 32 | (R) | 8 (≈ 19.9 µM) | –
CO/N=C(\C(=O)N[C@@H]1C(=O)N2C(C(=O)O)=CCS[C@H]12)c1csc(N)n1 [CTZ, ceftizoxime] | 1 (≈ 2.61 µM) | (S) | 2 (≈ 5.22 µM) | (S) | 16 (≈ 41.7 µM) | –
CCC[C@@H]1C[C@@H](C(=O)N[C@@H]([C@H]2O[C@H](SC)[C@H](O)[C@@H](O)[C@H]2O)[C@H](C)Cl)N(C)C1 [CLI, clindamycin] | 4 (≈ 9.41 µM) | (I) | ≤ 0.125 | (S) | – | –
C[C@@H](O)[C@H]1C(=O)N2C(C(=O)O)=C(S[C@@H]3CN[C@H](C(=O)N(C)C)C3)[C@H](C)[C@H]12 [MEM, meropenem] | 0.5 (≈ 1.3 µM) | (S) | 1 (≈ 2.61 µM) | (S) | 0.5 (≈ 1.3 µM) | –
O=C(N[C@H](CO)[C@H](O)c1ccc([N+](=O)[O-])cc1)C(Cl)Cl [CHL, chloramphenicol] | 4 (≈ 12.4 µM) | (S) | 4 (≈ 12.4 µM) | (S) | 8 (≈ 24.8 µM) | –
Piperacillin-tazobactam [PTZ] | – | (S) | – | (S) | – | 8/4
Cc1ncc([N+](=O)[O-])n1CCO [MTZ, metronidazole] | 0.5 (≈ 2.92 µM) | (S) | ≤ 0.25 | (S) | 2 (≈ 11.7 µM) | –
